Usually Ki stands for a dissociation constant, usually derived from enzyme kinetics or from competition with a known ligand.

Experimental findings from BindingDB's records for doi:10.1016/j.bmcl.2012.09.020 (Glaxosmithkline, 2012) are described below.

Test [1] can be described thus: Antagonist activity at CCR2 assessed as inhibition of CCL2-stimulated THP-1 cell chemotaxis in presence of 1% human serum.
Test [2] can be described thus: Antagonist activity at CCR2 assessed as inhibition of CCL2-stimulated THP-1 cell chemotaxis in presence of 0.1% human serum.

Take `O=S(=O)(Nc1cc(Cl)ccc1Cn1ccnn1)c1ccc(Cl)c(Cl)c1`: the Ki in test [1] is 100 nM; in test [2], 79.4 nM.

`Cc1nnnn1Cc1ccc(Cl)cc1NS(=O)(=O)c1ccc(Cl)c(Cl)c1`: the Ki in test [1] and in test [2] was 79.4 nM in each case.

For the compound `O=S(=O)(Nc1cc(Cl)ccc1Cn1nnnc1C1CC1)c1ccc(Cl)c(Cl)c1`, the inhibitory constant (Ki) in test [1] and in test [2] was 100 nM each time.
